From patent publication US20220380319A1 (Bial - R&D Investments, S.A., priority 2019, published 2022)
Values after ≈ are worked out from the molar mass of the structure shown.

What was measured:
[1] = physchem; conditions: water
[2] = target: T1, acid ceramidase (Homo sapiens, UniProt Q13510); experiment: Acid ceramidase inhibition, biochemical fluorescent assay with cell lysates overexpressing acid ceramidase, substrate Rbm14-12; conditions: substrate Rbm14-12 6.3 μM
T1 construct: Cell lysates overexpressing acid ceramidase were used as the enzyme source; expressed in transfected cells
T1 sequence (Q13510 22-395): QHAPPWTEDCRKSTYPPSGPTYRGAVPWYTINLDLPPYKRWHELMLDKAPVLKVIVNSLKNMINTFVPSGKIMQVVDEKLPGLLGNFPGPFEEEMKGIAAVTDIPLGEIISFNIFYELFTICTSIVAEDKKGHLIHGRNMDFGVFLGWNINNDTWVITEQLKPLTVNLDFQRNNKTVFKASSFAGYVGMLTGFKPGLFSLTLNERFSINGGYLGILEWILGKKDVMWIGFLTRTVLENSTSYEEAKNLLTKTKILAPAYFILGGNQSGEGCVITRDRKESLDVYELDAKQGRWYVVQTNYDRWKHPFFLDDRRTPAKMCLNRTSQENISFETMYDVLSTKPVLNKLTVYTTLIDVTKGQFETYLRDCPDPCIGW
Outline: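 IC50 derived by four-parameter fitting of fluorescence (ex360 nm, em446 nm) produced after 1 hr in methanol/NaIO4/glycine stop buffer, pH 10.6. Reaction: 6.3 μM Rbm14-12, 1 hr RT, following 1 hr RT compound preincubation with 10 μg overexpressing-cell lysate protein in pH 4.5 NaAC/NaCl buffer.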

[3] = Compound solubility in water
[4] = pH 4.5, 1 hr preincubation at RT

Structure (SMILES)	solubility [1] [µg/mL]	IC50 ([2]; pH 4.5) [nM]	solubility [3] [µg/mL]	IC50 [2, 4] [nM]
CC(C)CCNC(=O)n1cnc2c(N3CC3C(F)(F)F)cccc21 (stereo not shown) [Example 164, N-iso-Pentyl-4-(2-(trifluoromethyl)-aziridin-1-yl)-1H-benzo[d]imidazole-1-carboxamide]	2 (≈ 5.88 µM)	< 200		
O=C(NCCCc1ccccc1)n1cnc2c(N3CC3C(F)(F)F)cccc21 (stereo not shown) [Example 242, N-(3-phenylpropyl)-4-(2-(trifluoromethyl)aziridin-1-yl)-1H-benzo[d]imidazole-1-carboxamide]	1 (≈ 2.57 µM)	< 200		
O=C(NCCCc1ccccc1)n1cnc2c(N3CC3F)cccc21 (stereo not shown) [Example 274, 4-(2-Fluoroaziridin-1-yl)-N-(3-phenylpropyl)-1H-benzo[d]imidazole-1-carboxamide]	17 (≈ 50.2 µM)	< 200		
CC(C)C#CCNC(=O)n1cnc2c(N3CC3C(F)(F)F)cccc21 (stereo not shown) [Example 308, N-(4-Methylpent-2-yn-1-yl)-4-(2-(trifluoromethyl)-aziridin-1-yl)-1H-benzo[d]imidazole-1-carboxamide]	1 (≈ 2.85 µM)	< 200		
CC(C)C#CCNC(=O)n1cnc2c(N3CC(N(C)C)C3)cccc21 [Example 355, 4-(3-(Dimethylamino)azetidin-1-yl)-N-(4-methylpent-2-yn-1-yl)-1H-benzo[d]imidazole-1-carboxamide]			22 (≈ 64.8 µM)	200 to 1000
CN1CC2CC1CN2C1CN(c2cccc3c2ncn3C(=O)NCCOc2ccccc2)C1 (stereo not shown) [Example 356, 4-(3-(5-Methyl-2,5-diazabicyclo[2.2.1]heptan-2-yl)azetidin-1-yl)-N-(2-phenoxyethyl)-1H-benzo[d]imidazole-1-carboxamide]			46 (≈ 103 µM)	< 200
O=C(NCCc1ccccc1)n1c(OCCN2CCOCC2)nc2ccccc21 [Example 357, 2-(2-Morpholinoethoxy)-N-phenethyl-1H-benzo[d]imidazole-1-carboxamide]			6 (≈ 15.2 µM)	200 to 1000
CC(C)C#CCNC(=O)n1cnc2c(N3CC4(CN(C)C4)C3)cccc21 [Example 358, 4-(6-Methyl-2,6-diazaspiro[3.3]heptan-2-yl)-N-(4-methylpent-2-yn-1-yl)-1H-benzo[d]imidazole-1-carboxamide]			33 (≈ 93.9 µM)	200 to 1000
CC(C)C#CCNC(=O)n1cnc2c(N3CC4(CCN4C)C3)cccc21 [Example 359, 4-(1-Methyl-1,6-diazaspiro[3.3]heptan-6-yl)-N-(4-methylpent-2-yn-1-yl)-1H-benzo[d]imidazole-1-carboxamide]			23 (≈ 65.4 µM)	200 to 1000
CN1CCN(C2CN(c3cccc4c3ncn4C(=O)NCC#CC(C)(C)C)C2)CC1 [Example 360, N-(4,4-Dimethylpent-2-yn-1-yl)-4-(3-(4-methylpiperazin-1-yl)azetidin-1-yl)-1H benzo[d]imidazole-1-carboxamide]			27 (≈ 66.1 µM)	< 200
CN1CC(N2CCN(c3cccc4c3ncn4C(=O)NCCC#Cc3ccccc3)CC2)C1 [Example 361]			24 (≈ 54.2 µM)	< 200
CN1CCN(C2CN(c3cccc4c3ncn4C(=O)NCCC#Cc3ccccc3)C2)CC1 [Example 362, 4-(3-(4-Methylpiperazin-1-yl)azetidin-1-yl)-N-(4-phenylbut-3-ynyl)-1H-benzo[d]imidazole-1-carboxamide]			23 (≈ 52 µM)	< 200
CN1CCN(CCOc2nc3ccccc3n2C(=O)NCCC#Cc2ccccc2)CC1 [Example 363, 2-(2-(4-Methylpiperazin-1-yl)ethoxy)-N-(4-phenylbut-3-yn-1-yl)-1H-benzo[d]imidazole-1-carboxamide]			28 (≈ 64.9 µM)	< 200
CN(C)C1CN(c2cccc3c2ncn3C(=O)NCCC#Cc2ccccc2)C1 [Example 364, 4-(3-(Dimethylamino)azetidin-1-yl)-N-(4-phenylbut-3-ynyl)-1H-benzo[d]imidazole-1-carboxamide]			17 (≈ 43.9 µM)	< 200
CN1CCN(c2cccc3c2ncn3C(=O)NCc2ccc3c(c2)OCCO3)CC1 [Example 365, N-((2,3-Dihydrobenzo[b][1,4]dioxin-6-yl)methyl)-4-(4-methylpiperazin-1-yl)-1H-benzo[d]imidazole-1-carboxamide]			11 (≈ 27 µM)	< 200
CN1CCC2(CC1)CN(c1cccc3c1ncn3C(=O)NCCC#Cc1ccccc1)C2 [Example 366, 4-(7-Methyl-2,7-diazaspiro[3.5]nonan-2-yl)-N-(4-phenylbut-3-yn-1-yl)-1H-benzo[d]imidazole-1-carboxamide]			21 (≈ 49.1 µM)	< 200
CN1CC2(CCN(c3cccc4c3ncn4C(=O)NCCC#Cc3ccccc3)CC2)C1 [Example 367, 4-(2-Methyl-2,7-diazaspiro[3.5]nonan-7-yl)-N-(4-phenylbut-3-yn-1-yl)-1H-benzo[d]imidazole-1-carboxamide]			27 (≈ 63.2 µM)	< 200
